US20260373127A1, “USE OF DIHYDROBERBERINE OR ITS DERIVATIVES FOR REGULATING GLP-1” (NANJING NUTRABUILDING BIO-TECH CO., LTD., priority 2024, published 2026)

Columns and labels:
[1] = Fasting blood glucose in another 14-week mice experiment; type: in vivo; settings: 35 mg/kg, at week 13
[2] = Body weight in another 14-week mice experiment; type: in vivo; settings: 35 mg/kg
Weight of the fat pad = type: in vivo, mice; settings: 1.5 mg/kg; result in words
Description: (§1) At the beginning of the experiment, the mice were divided randomly into control mice (Group 1, n=8), HFD group (Group 2, n=8), HFD+DHB group (Group 3, n=8) and NC+DHB group (Group 4, n=8). The dosage of DHB supplementation is 1.5 mg/kg. The group 1 is the control group and is given the normal chow; the group 2 is the high-fat mouse and continue high fat diet for 8 weeks; the group 3 also continued to eat a high-fat diet and received daily intragastric administration of sample for 8 weeks; the group 4 is given the normal chow and received daily intragastric administration of sample for 8 weeks. Record the body fat and weight of each group of mice every week. Complete Oral glucose tolerance test (OGTT)/Insulin intraperitoneal tolerance test (IPTT) on the last day of week 8, then execute the mice and take serum −80 °C for storage.
Weight of the fat pad: At the 17th week, the mice were sacrificed, and the fat pads (subcutaneous, epididymis and perirenal) were dissected, photographed and weighed.

[3] = Insulin intraperitoneal tolerance test (IPTT); type: in vivo, mice
Description: as §1
(§2) Measurement of Blood Glucose: Oral glucose tolerance test (OGTT): At week 16th of the experiment, after fasting for 15 h, Glucose was given […] (2 g/kg), and blood Glucose was measured at 0, 15, 30, 60, 90, 120 mins. Insulin intraperitoneal tolerance test (IPTT): At week 16th of the experiment, after fasting for 15h, insulin (1U/kg) was injected intraperitoneally and blood glucose was measured at 0, 15, 30, 60, 90, 120 mins.

GLP-1 [4] = assay: GLP-1 in another 14-week mice experiment; type: in vivo; settings: 35 mg/kg, at week 14
[5] = Change of body weight, 8-week mouse study; type: in vivo, mice; settings: for body weight: DHB 1.5 mg/kg daily intragastric
Description: as §1
Change of body weight: Weigh once a week at a fixed time from beginning of the experiment.

[6] = Serum lipids (TC, TG, LDL, HDL) by ELISA; type: in vivo, mice
Description: as §1
(§3) Serum detection by ELISA: At week 8th of the experiment, the whole blood is extracted by removing the eyeball. The serum was acquired after centrifugation (10000 rpm 15 mins), stored at −80 °C for later use. Determinate the concentration of insulin (INS), cholesterol (TC), triglycerides (TG), LDL (low density lipoprotein), HDL (high density lipoprotein), GLP-1 in serum by ELISA kits.

insulin (INS) = assay: Serum insulin (INS) by ELISA; type: in vivo, mice; settings: 1.5 mg/kg; result in words
Description: as §1, §3

GLP-1 [7] = assay: Serum GLP-1 by ELISA; type: in vivo, mice; settings: 1.5 mg/kg; result in words
Description: as §1, §3

[8] = Oral glucose tolerance test (OGTT); type: in vivo, mice
Description: as §1, §2

[9] = Body composition analysis (fat content), 8-week mouse study; type: in vivo, mice; settings: 1.5 mg/kg daily intragastric, 8 weeks
Description: as §1
Body composition analysis: During the experiment, the fat mass and lean mass was measured by Nuclear Magnetic Resonance Body Composition Analyzer once a week.

[10] = Acute intervention study on appetite measures in human; type: in vivo; settings: single 200 mg dose
[11] = HFD+DHB group, 1.5 mg/kg daily intragastric, 8 weeks
[12] = NC+DHB group, 1.5 mg/kg daily intragastric, 8 weeks

With `COc1ccc2c(c1OC)CN1CCc3cc4c(cc3C1=C2)OCO4` [DHB, dihydroberberine] the “decrease of fasting blood glucose compared with untreated control group (HFD group)” value [1] was “about 16%”, the benefits over time ([2]; 14-week mice experiment, result in words) was “Benefits intensified over time rather than plateauing” and the “weight loss compared with untreated control group (HFD group)” value ([2]; by week 7) was “about 15%”. For the same compound, the “weight loss compared with untreated control group (HFD group)” value ([2]; by week 13) was “about 33%”, the “pararenal fat pad weight relative to mice without DHB supplementation” value (Weight of the fat pad) was “significantly increase” and the “insulin tolerance relative to mice without DHB supplementation” value ([3]; 1.5 mg/kg, result in words) was “improve the blood glucose and insulin tolerance”. For the same compound, the “decrease of AUC of IPTT compared with HFD group” value ([3]; HFD+DHB group (Group 3), 1.5 mg/kg daily intragastric, insulin 1U/kg i.p., 0-120 mins) was “about 27%”, the “decrease of AUC of IPTT compared with control mice” value ([3]; NC+DHB group (Group 4), 1.5 mg/kg daily intragastric, insulin 1U/kg i.p., 0-120 mins) was “approximately 21%” and the “increase of GLP-1 compared with untreated control group (HFD)” value (GLP-1 [4]) was 165%. The body weight curve ([5]; DHB groups, 1.5 mg/kg, 8 weeks, result in words) was “helpful in inhibiting high fat induced obesity”, the “decrease of body weight compared with HFD group” value [5, 11] was 9.84% and the body weight ([5]; HFD+DHB group, 8 weeks, HFD group 37 g) was 33.36 g. For the same compound, the “decrease of body weight compared with NC group” value ([5]; NC+DHB group, 1.5 mg/kg daily intragastric, at the 8th week) was 7.75%, the body weight ([5]; NC+DHB group, 8 weeks, NC group 33.96 g) was 31.33 g and the “serum HDL relative to mice without DHB supplementation” value ([6]; 1.5 mg/kg, result in words) was “significantly increase”. For the same compound, the “serum LDL relative to mice without DHB supplementation” value ([6]; 1.5 mg/kg, result in words) was “decrease”, the “serum TC relative to mice without DHB supplementation” value ([6]; 1.5 mg/kg, result in words) was “decrease” and the “serum TG relative to mice without DHB supplementation” value ([6]; 1.5 mg/kg, result in words) was “decrease”. For the same compound, the “decrease of LDL compared with HFD group” value [6, 11] was 32.3%, the “increase in serum HDL compared with HFD group” value [6, 11] was 19% and the “increase of ratio of HDL/LDL compared with HFD group” value [6, 11] was 76%. The “reduction in serum TG compared with HFD group” value [6, 11] was 26.1%, the “reduction of blood TC compared with HFD group” value [6, 11] was 20.6% and the “decrease of LDL compared with NC group” value [6, 12] was 18.3%. For the same compound, the “increase in serum HDL compared with NC group” value [6, 12] was 8.8%, the “increase of ratio of HDL/LDL compared with NC group” value [6, 12] was 33% and the “reduction in serum TG compared with NC group” value [6, 12] was 13.2%. For the same compound, the “reduction of blood TC compared with NC group” value [6, 12] was 9.8%, the “serum INS relative to mice without DHB supplementation” value (insulin (INS)) was “decrease” and the “serum GLP-1 relative to mice without DHB supplementation” value (GLP-1 [7]) was “significantly increase”. For the same compound, the “blood glucose tolerance relative to mice without DHB supplementation” value ([8]; 1.5 mg/kg, result in words) was “improve the blood glucose and insulin tolerance”, the “decrease of AUC of OGTT compared with HFD group” value ([8]; HFD+DHB group (Group 3), 1.5 mg/kg daily intragastric, glucose 2 g/kg, 0-120 mins) was “approximately 19%” and the “decrease of AUC of OGTT compared with control mice” value ([8]; NC+DHB group (Group 4), 1.5 mg/kg daily intragastric, glucose 2 g/kg, 0-120 mins) was “approximately 10%”. The “decrease of fat content compared with HFD group” value ([9]; HFD+DHB group (Group 3)) was “approximately 19%”, the “decrease of fat content compared with control mice” value ([9]; NC+DHB group (Group 4)) was roughly 35% and the subjective appetite [10] was “decreases subjective appetite”. For the same compound, the composite appetite score ([10]; vs placebo) was “beat placebo”, the desire to eat ([10]; vs placebo) was “beat placebo” and the fullness ([10]; vs placebo) was “beat placebo”. The hunger ([10]; vs placebo) was “beat placebo” and the prospective food consumption ([10]; vs placebo) was “beat placebo”.
